Source: ChEMBL document CHEMBL4507269, “Data for DCP probe BAY-386” (2021)

Assays:
[1] = molecular target: Beta-2 adrenergic receptor (Homo sapiens) (UniProt P07550); test: beta2 (h) Eurofins-Cerep Cellular and Nuclear Receptor Functional Assays; settings: Compound concentration 10.0 uM
[2] = test system: ALK tyrosine kinase receptor (Homo sapiens), Q9UM73 [L1196M]; settings: Compound concentration 1000.0 nM
[3] = molecular target: Calcium/calmodulin-dependent protein kinase type 1 (Homo sapiens) (UniProt Q14012); settings: Compound concentration 1000.0 nM
Calcium/calmodulin-dependent protein kinase type 1 (Homo sapiens), sequence (Q14012 whole entry, looked up): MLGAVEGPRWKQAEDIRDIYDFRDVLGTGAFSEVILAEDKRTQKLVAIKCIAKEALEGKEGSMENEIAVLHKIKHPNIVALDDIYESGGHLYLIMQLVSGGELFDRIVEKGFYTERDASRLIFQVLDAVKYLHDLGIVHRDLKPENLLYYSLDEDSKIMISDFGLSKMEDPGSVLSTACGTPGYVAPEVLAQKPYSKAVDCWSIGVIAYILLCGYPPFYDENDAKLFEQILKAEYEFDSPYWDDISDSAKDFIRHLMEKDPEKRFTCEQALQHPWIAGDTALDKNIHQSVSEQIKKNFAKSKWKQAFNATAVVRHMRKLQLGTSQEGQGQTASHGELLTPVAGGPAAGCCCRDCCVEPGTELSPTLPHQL

[4] = molecular target: Dual specificity protein kinase CLK2 (Homo sapiens) (UniProt P49760); settings: Compound concentration 1000.0 nM
[5] = molecular target: Megakaryocyte-associated tyrosine-protein kinase (Homo sapiens) (UniProt P42679); settings: Compound concentration 1000.0 nM
[6] = molecular target: Serine/threonine-protein kinase 17A (Homo sapiens) (UniProt Q9UEE5); settings: Compound concentration 1000.0 nM
Serine/threonine-protein kinase 17A (Homo sapiens), sequence (Q9UEE5 whole entry): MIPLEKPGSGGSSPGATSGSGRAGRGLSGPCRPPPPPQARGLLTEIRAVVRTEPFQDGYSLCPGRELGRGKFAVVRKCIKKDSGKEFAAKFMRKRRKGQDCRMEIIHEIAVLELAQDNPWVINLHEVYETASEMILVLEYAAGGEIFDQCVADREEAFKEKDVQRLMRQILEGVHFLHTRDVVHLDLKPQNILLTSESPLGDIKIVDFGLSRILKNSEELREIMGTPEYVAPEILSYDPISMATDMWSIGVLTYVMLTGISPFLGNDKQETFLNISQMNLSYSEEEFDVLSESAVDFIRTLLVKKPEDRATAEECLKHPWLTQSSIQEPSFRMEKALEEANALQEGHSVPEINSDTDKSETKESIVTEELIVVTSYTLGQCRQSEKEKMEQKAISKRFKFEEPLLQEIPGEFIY

[7] = test system: Epidermal growth factor receptor (Homo sapiens), P00533 [UNDEFINED MUTATION]; settings: Compound concentration 1000.0 nM
[8] = test system: Epidermal growth factor receptor (Homo sapiens), P00533 [UNDEFINED MUTATION]; settings: Compound concentration 1000.0 nM; remark: listed apart in the source
[9] = test system: Epidermal growth factor receptor (Homo sapiens), P00533 [T790M]; settings: Compound concentration 1000.0 nM
[10] = molecular target: Ephrin type-A receptor 2 (Homo sapiens) (UniProt P29317); settings: Compound concentration 1000.0 nM
[11] = molecular target: Ephrin type-B receptor 1 (Homo sapiens) (UniProt P54762); settings: Compound concentration 1000.0 nM
[12] = molecular target: Tyrosine-protein kinase Fer (Homo sapiens) (UniProt P16591); settings: Compound concentration 1000.0 nM
Tyrosine-protein kinase Fer (Homo sapiens), sequence (P16591 whole entry, looked up): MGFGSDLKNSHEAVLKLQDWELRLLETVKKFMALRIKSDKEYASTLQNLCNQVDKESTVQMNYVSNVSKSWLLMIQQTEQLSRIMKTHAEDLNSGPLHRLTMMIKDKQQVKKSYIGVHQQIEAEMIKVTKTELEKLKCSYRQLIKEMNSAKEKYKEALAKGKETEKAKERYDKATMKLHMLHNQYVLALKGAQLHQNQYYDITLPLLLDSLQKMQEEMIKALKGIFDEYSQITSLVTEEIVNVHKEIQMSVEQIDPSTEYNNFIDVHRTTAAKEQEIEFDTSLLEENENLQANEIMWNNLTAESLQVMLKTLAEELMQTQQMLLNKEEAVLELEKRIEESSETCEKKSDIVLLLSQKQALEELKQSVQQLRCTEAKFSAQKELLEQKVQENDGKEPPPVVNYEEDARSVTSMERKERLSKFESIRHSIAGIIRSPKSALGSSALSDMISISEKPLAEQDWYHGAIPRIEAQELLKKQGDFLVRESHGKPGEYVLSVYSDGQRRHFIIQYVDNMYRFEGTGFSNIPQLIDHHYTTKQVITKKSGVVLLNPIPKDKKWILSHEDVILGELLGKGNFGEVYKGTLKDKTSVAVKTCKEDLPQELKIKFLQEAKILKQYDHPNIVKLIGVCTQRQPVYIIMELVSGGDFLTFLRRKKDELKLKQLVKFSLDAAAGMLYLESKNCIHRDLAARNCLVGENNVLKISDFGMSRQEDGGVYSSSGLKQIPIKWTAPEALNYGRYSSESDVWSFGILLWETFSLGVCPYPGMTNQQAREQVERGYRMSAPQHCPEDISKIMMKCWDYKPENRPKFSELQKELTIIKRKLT

[13] = molecular target: Fibroblast growth factor receptor 1 (Homo sapiens) (UniProt P11362); settings: Compound concentration 1000.0 nM
[14] = molecular target: Vascular endothelial growth factor receptor 1 (Homo sapiens) (UniProt P17948); settings: Compound concentration 1000.0 nM
Vascular endothelial growth factor receptor 1 (Homo sapiens), sequence (P17948 whole entry): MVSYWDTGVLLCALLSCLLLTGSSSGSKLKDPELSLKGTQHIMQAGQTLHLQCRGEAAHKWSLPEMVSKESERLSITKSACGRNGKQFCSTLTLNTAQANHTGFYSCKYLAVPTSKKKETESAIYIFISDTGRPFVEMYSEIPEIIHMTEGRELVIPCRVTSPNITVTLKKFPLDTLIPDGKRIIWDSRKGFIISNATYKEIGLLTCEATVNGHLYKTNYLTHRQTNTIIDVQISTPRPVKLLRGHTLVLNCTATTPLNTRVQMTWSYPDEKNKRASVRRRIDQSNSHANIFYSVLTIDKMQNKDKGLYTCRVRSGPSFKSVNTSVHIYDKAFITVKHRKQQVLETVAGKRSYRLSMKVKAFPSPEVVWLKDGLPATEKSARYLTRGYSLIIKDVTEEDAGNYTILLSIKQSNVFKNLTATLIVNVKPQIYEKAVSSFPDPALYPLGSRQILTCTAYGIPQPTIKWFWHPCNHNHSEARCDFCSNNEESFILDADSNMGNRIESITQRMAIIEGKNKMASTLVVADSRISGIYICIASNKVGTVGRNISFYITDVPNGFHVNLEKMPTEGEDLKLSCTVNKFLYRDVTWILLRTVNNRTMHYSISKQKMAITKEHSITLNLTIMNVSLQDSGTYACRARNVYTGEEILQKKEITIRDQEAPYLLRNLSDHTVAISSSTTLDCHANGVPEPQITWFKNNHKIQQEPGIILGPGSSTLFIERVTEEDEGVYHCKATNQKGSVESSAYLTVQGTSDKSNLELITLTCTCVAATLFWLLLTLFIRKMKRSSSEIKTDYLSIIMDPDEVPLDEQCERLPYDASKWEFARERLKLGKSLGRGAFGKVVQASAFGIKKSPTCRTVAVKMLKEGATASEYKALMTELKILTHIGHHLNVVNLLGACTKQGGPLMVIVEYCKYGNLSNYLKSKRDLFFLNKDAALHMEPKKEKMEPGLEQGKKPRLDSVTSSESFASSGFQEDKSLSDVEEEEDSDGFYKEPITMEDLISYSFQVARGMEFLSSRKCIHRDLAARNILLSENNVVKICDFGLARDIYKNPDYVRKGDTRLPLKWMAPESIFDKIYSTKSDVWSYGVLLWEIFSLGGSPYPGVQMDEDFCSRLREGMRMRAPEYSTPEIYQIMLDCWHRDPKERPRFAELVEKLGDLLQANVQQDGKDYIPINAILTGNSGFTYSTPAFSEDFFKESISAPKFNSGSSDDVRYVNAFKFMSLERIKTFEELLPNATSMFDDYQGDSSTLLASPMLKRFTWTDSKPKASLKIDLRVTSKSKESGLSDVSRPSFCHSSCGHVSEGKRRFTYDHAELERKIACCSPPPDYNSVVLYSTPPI

[15] = molecular target: Mitogen-activated protein kinase kinase kinase kinase 1 (Homo sapiens) (UniProt Q92918); settings: Compound concentration 1000.0 nM
[16] = molecular target: Tyrosine-protein kinase JAK1 (Homo sapiens) (UniProt P23458); settings: Compound concentration 1000.0 nM
[17] = test system: Mast/stem cell growth factor receptor Kit (Homo sapiens), P10721 [D816V]; settings: Compound concentration 1000.0 nM
[18] = test system: Mast/stem cell growth factor receptor Kit (Homo sapiens), P10721 [V559D,V654A]; settings: Compound concentration 1000.0 nM
[19] = molecular target: Mitogen-activated protein kinase kinase kinase kinase 5 (Homo sapiens) (UniProt Q9Y4K4); settings: Compound concentration 1000.0 nM
[20] = molecular target: Dual specificity mitogen-activated protein kinase kinase 5 (Homo sapiens) (UniProt Q13163); settings: Compound concentration 1000.0 nM
[21] = molecular target: Myosin light chain kinase (Homo sapiens) (UniProt Q32MK0); settings: Compound concentration 1000.0 nM
[22] = molecular target: Serine/threonine-protein kinase 38-like (Homo sapiens) (UniProt Q9Y2H1); settings: Compound concentration 1000.0 nM
[23] = molecular target: Phosphorylase b kinase regulatory subunit alpha, liver isoform (Homo sapiens) (UniProt P46019); settings: Compound concentration 1000.0 nM
[24] = molecular target: Phosphatidylinositol 3-kinase C2 domain-containing subunit gamma (Homo sapiens) (UniProt O75747); settings: Compound concentration 1000.0 nM
[25] = molecular target: Phosphatidylinositol 4,5-bisphosphate 3-kinase catalytic subunit alpha isoform (Homo sapiens) (UniProt P42336); settings: Compound concentration 1000.0 nM
Phosphatidylinositol 4,5-bisphosphate 3-kinase catalytic subunit alpha isoform (Homo sapiens), sequence (P42336 whole entry, canonical isoform): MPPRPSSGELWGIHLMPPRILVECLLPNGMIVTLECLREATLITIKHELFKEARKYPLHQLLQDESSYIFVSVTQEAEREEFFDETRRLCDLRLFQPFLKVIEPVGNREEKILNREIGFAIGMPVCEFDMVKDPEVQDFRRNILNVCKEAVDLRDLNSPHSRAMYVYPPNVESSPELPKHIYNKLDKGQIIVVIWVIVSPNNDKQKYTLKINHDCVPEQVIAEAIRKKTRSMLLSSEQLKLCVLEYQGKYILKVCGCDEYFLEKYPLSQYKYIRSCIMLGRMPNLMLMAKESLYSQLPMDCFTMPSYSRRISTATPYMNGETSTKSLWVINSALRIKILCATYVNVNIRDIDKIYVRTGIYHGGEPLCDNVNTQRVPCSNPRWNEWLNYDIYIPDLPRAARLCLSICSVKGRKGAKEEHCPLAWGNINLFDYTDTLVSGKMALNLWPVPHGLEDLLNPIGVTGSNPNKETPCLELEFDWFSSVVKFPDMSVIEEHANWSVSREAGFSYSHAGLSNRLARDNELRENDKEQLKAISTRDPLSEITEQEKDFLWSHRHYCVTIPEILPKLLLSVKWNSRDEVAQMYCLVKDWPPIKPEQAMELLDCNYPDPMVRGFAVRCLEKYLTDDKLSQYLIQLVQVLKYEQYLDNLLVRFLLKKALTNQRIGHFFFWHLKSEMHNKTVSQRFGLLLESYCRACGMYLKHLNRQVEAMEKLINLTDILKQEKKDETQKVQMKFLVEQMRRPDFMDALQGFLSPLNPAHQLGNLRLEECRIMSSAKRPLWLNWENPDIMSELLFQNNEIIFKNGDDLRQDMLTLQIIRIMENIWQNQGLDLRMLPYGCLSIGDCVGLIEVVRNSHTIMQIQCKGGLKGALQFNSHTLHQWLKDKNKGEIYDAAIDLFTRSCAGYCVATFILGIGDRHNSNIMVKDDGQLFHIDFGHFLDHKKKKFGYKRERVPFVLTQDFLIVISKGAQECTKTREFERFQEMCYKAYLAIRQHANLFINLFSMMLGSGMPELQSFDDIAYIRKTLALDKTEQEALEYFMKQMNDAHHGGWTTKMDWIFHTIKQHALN

[26] = test system: Phosphatidylinositol 4,5-bisphosphate 3-kinase catalytic subunit alpha isoform (Homo sapiens), P42336 [H1047L]; settings: Compound concentration 1000.0 nM
[27] = test system: Phosphatidylinositol 4,5-bisphosphate 3-kinase catalytic subunit alpha isoform (Homo sapiens), P42336 [Q546K]; settings: Compound concentration 1000.0 nM
[28] = molecular target: Phosphatidylinositol 4,5-bisphosphate 3-kinase catalytic subunit gamma isoform (Homo sapiens) (UniProt P48736); settings: Compound concentration 1000.0 nM
[29] = molecular target: Serine/threonine-protein kinase D2 (Homo sapiens) (UniProt Q9BZL6); settings: Compound concentration 1000.0 nM
[30] = molecular target: Serine/threonine-protein kinase Sgk2 (Homo sapiens) (UniProt Q9HBY8); settings: Compound concentration 1000.0 nM
Serine/threonine-protein kinase Sgk2 (Homo sapiens), sequence (Q9HBY8 whole entry): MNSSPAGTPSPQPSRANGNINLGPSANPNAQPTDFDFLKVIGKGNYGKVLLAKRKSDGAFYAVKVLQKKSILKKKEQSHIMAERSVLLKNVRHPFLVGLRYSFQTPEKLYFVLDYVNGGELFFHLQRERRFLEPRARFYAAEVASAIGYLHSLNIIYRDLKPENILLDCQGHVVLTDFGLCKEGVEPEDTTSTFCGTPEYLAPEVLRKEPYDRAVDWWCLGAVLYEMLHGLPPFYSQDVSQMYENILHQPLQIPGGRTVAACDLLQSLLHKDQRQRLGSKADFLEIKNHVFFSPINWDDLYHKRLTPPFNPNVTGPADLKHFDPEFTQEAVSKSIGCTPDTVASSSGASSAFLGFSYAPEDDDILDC

[31] = molecular target: SRSF protein kinase 1 (Homo sapiens) (UniProt Q96SB4); settings: Compound concentration 1000.0 nM
[32] = molecular target: Dual specificity testis-specific protein kinase 1 (Homo sapiens) (UniProt Q15569); settings: Compound concentration 1000.0 nM
[33] = molecular target: High affinity nerve growth factor receptor (Homo sapiens) (UniProt P04629); settings: Compound concentration 1000.0 nM
[34] = molecular target: Tyrosine-protein kinase TXK (Homo sapiens) (UniProt P42681); settings: Compound concentration 1000.0 nM
[35] = molecular target: Serine/threonine-protein kinase WNK3 (Homo sapiens) (UniProt Q9BYP7); settings: Compound concentration 1000.0 nM
[36] = molecular target: D(1B) dopamine receptor (Homo sapiens) (UniProt P21918); settings: Compound concentration 10.0 uM
[37] = molecular target: T1, Muscarinic acetylcholine receptor M1 (Homo sapiens) (UniProt P11229); settings: Compound concentration 10.0 uM
T1 sequence (whole entry): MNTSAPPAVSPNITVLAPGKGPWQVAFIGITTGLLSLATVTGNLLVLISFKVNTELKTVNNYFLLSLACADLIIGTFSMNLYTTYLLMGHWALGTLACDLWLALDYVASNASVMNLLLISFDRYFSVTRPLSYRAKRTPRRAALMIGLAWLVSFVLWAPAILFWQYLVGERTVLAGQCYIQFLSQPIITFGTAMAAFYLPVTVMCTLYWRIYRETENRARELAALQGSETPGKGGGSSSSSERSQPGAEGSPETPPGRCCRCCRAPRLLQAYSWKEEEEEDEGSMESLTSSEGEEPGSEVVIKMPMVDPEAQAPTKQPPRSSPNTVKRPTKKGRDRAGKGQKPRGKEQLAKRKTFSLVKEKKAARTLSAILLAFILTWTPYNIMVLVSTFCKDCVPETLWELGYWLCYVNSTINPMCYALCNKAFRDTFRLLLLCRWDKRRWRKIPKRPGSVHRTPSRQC

[38] = molecular target: Muscarinic acetylcholine receptor M3 (Homo sapiens) (UniProt P20309); settings: Compound concentration 10.0 uM

Beta-2 adrenergic receptor (Homo sapiens), sequence (P07550 whole entry, looked up): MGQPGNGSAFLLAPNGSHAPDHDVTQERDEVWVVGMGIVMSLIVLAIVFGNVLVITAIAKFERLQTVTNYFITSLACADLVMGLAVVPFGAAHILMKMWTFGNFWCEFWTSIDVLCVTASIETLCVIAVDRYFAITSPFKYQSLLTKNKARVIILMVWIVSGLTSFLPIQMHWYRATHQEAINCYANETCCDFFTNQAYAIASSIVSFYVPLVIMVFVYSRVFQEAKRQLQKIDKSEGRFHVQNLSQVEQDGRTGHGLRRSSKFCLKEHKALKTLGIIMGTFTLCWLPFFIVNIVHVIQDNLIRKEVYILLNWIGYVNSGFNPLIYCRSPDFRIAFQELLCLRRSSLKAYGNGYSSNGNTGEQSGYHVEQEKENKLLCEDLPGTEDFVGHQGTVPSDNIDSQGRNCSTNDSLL

| SMILES | % Inhibition of Control Agonist Response (Mean n=2) [1] [%] | % of Control Agonist Response (Mean n=2) [1] [%] | residual activity [2] [%] | residual activity [3] [%] | residual activity [4] [%] | residual activity [5] [%] | residual activity [6] [%] | residual activity [7] [%] | residual activity [8] [%] | residual activity [9] [%] | residual activity [10] [%] | residual activity [11] [%] | residual activity [12] [%] | residual activity [13] [%] | residual activity [14] [%] | residual activity [15] [%] | residual activity [16] [%] | residual activity [17] [%] | residual activity [18] [%] | residual activity [19] [%] | also measured |
| --- | --- | --- | --- | --- | --- | --- | --- | --- | --- | --- | --- | --- | --- | --- | --- | --- | --- | --- | --- | --- | --- |
| O=C(N1CCS(=O)(=O)CC1)N1C[C@H](c2ccc(OC(F)(F)F)cc2)C[C@H](c2nc(C3CC3)no2)C1 [BAY-386] | -6.9 | -1.7 | 65 | 100 | 100 | 100 | 100 | 100 | 55 | 100 | 100 | 100 | 100 | 100 | 100 | 100 | 100 | 100 | 100 | 100 | residual activity [20]: 100%; residual activity [21]: 79%; residual activity [22]: 100%; residual activity [23]: 100%; residual activity [24]: 93%; residual activity [25]: 100%; residual activity [26]: 100%; residual activity [27]: 83%; residual activity [28]: 100%; residual activity [29]: 100%; residual activity [30]: 76%; residual activity [31]: 100%; residual activity [32]: 100%; residual activity [33]: 87%; residual activity [34]: 100%; residual activity [35]: 99%; inhibition [36]: 9.95%; inhibition [37]: 2.07%; inhibition [38]: -2.11% |
| Cc1noc([C@H]2C[C@@H](c3ccc(C(F)(F)F)cc3)CN(C(=O)N3CCS(=O)(=O)C3)C2)n1 [BAY-448] | 10.2 | 2.3 | 100 | 100 | 100 | 100 | 100 | 78 | 84 | 77 | 100 | 100 | 82 | 100 | 100 | 100 | 74 | 100 | 100 | 100 | residual activity [20]: 78%; residual activity [21]: 100%; residual activity [22]: 100%; residual activity [23]: 100%; residual activity [24]: 90%; residual activity [25]: 99%; residual activity [26]: 100%; residual activity [27]: 100%; residual activity [28]: 85%; residual activity [29]: 100%; residual activity [30]: 100%; residual activity [31]: 100%; residual activity [32]: 91%; residual activity [33]: 90%; residual activity [34]: 92%; residual activity [35]: 76%; inhibition [36]: 22.6%; inhibition [37]: -7.31%; inhibition [38]: -1.45% |
